Reference: patent US20030031723A1, “Formulation and method for preparation of rapid dispersion spheroids which can be heavily titrated” (priority 2001, published 2003)

Assay: quantity of water absorbed by the same mass (100 g) of excipients
Type: physicochemical
Excerpt: Below are some examples supporting this statement, which test the quantity of water absorbed by the same mass (100 g) of excipients of different types: […]

- AMOUNT OF WATER ABSORBED PER 100 g OF EXCIPIENT: 15 g
SMILES: OC[C@H]1O[C@@H](O[C@H]2[C@H](O)[C@@H](O)C(O)O[C@@H]2CO)[C@H](O)[C@@H](O)[C@H]1O (stereo partly shown) [Lactose]
